Tests used:
Nur77-LBD = Nur77-LBD (Homo sapiens, UniProt P22736); experiment: Surface plasmon resonance (SPR) binding to Nur77-LBD; details: BIAcore T200, 25° C., 1:1 Langmuir binding mode, read-out: Kd when binding to the Nur77-LBD protein
Experimental: A test compound was analyzed for its binding kinetics with Nur77-LBD at 25° C. on a BIAcore T200 machine with CM5 chips. PBSP was used for all measurements. For SPR measurements, Nur77-LBD proteins were purified. A blank channel was used as negative control. About 10,000 response units of Nur77-LBD were immobilized on the chips. When the data collection was finished in each cycle, the sensor surface was regenerated with glycine-HCl at pH 2.5. A serial of concentrations ranging from 0.15 to 5.0 μM of the test compound was used. Sensograms were fit globally with BIAcore T200 analysis using 1:1 Langmuir binding mode.

[1] = tested on: A375 (malignant melanoma); experiment: MTT antiproliferative assay, A375; type: cell-based; details: Homo sapiens, A-375, A375, 10 μM, 48 or 72 h, read-out: inhibition of cell growth, A375
In short: (§1)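 Cells seeded at 2,000-5,000/well were treated with compound at 0.137 to 100 μM or a single 10 μM for 48 or 72 h at 37° C. MTT was added for a further 4 h, formazan dissolved in DMSO and absorbance read at 490 nm; viability was expressed relative to DMSO vehicle.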

SW620 (colon cancer) = experiment: MTT antiproliferative assay, SW620; type: cell-based; details: Homo sapiens, SW-620, SW620, 10 μM, 48 or 72 h, read-out: inhibition of cell growth, SW620
In short: as §1

HepG2 (liver cancer) = experiment: MTT antiproliferative assay, HepG2; type: cell-based; details: Homo sapiens, HepG2, 10 μM, 48 or 72 h, read-out: inhibition of cell growth, HepG2
In short: as §1

[2] = tested on: A431 (epidermoid carcinoma); experiment: MTT antiproliferative assay, A431; type: cell-based; details: Homo sapiens, A-431, A431, 10 μM, 48 or 72 h, read-out: inhibition of cell growth, A431
In short: as §1

HeLa (ovarian cancer) = experiment: MTT antiproliferative assay, HeLa; type: cell-based; details: Homo sapiens, 48 or 72 h, read-out: inhibition of cell growth, HELA
In short: as §1

[3] = tested on: A549 (lung adenocarcinoma); experiment: MTT antiproliferative assay, A549; type: cell-based; details: Homo sapiens, A549, 10 μM, 48 or 72 h, read-out: inhibition of cell growth, A549
In short: as §1

[4] = tested on: MDA-MB-231 (breast cancer); experiment: MTT antiproliferative assay, MDA-MB-231; type: cell-based; details: Homo sapiens, MDA-MB-231, 10 μM, 48 or 72 h, read-out: inhibition of cell growth, MDA-MB-231
In short: as §1

Chain of Nur77-LBD (P22736 360-595 limits assumed, species assumed): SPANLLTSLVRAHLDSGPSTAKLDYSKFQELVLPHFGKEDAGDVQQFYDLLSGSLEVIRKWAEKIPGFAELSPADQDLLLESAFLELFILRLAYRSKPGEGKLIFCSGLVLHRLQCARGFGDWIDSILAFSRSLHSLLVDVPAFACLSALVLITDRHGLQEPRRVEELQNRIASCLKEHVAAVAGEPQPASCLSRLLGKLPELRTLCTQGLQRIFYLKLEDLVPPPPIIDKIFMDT

Structure (SMILES): CO[C@]1(C)C(=O)C(=O)C=C2C1=CC=C1[C@@]2(C)CC[C@@]2(C)[C@@H]3C[C@](C)(C(=O)O)CC[C@]3(C)CC[C@]12C [Compound A1, (2R,4aS,6aS,9S,12bR,14aS,14bR)-9-methoxy-2,4a,6a,9,12b,14a-hexamethyl-10,11-dioxo-1,2,3,4,4a,5,6,6a,9,10,11,12b,13,14,14a,14b-hexadecahydropicene-2-carboxylic acid]
- Kd (Nur77-LBD): 390 nM
- inhibition at 10 µM [1]: 30 to 50%
- inhibition at 10 µM (SW620 (colon cancer)): 50 to 80%
- inhibition at 10 µM (HepG2 (liver cancer)): 50 to 80%
- inhibition at 10 µM [2]: 50 to 80%
- inhibition at 10 µM (HeLa (ovarian cancer)): ≥ 80%
- inhibition at 10 µM [3]: 30 to 50%
- inhibition at 10 µM [4]: 50 to 80%

Structure (SMILES): CNC(=O)[C@]1(C)CC[C@]2(C)CC[C@]3(C)C4=CC=C5C(=CC(=O)C(=O)[C@@]5(C)OC)[C@]4(C)CC[C@@]3(C)[C@@H]2C1 [Compound A7, (2R,4aS,6aS,9S,12bR,14aS,14bR)-9-methoxy-N,2,4a,6a,9,12b,14a-heptamethyl-10,11-dioxo-1,2,3,4,4a,5,6,6a,9,10,11,12b,13,14,14a,14b-hexadecahydropicene-2-carboxamide]
- Kd (Nur77-LBD): 560 nM
- inhibition at 10 µM [1]: 50 to 80%
- inhibition at 10 µM (SW620 (colon cancer)): 30 to 50%
- inhibition at 10 µM (HepG2 (liver cancer)): 50 to 80%
- inhibition at 10 µM [2]: 50 to 80%
- inhibition at 10 µM (HeLa (ovarian cancer)): ≥ 80%
- inhibition at 10 µM [3]: 30 to 50%
- inhibition at 10 µM [4]: ≥ 80%

Structure (SMILES): CO[C@]1(C)C(=O)C(=O)C=C2C1=CC=C1[C@@]2(C)CC[C@@]2(C)[C@@H]3C[C@](C)(C(N)=O)CC[C@]3(C)CC[C@]12C [Compound A9, (2R,4aS,6aS,9S,12bR,14aS,14bR)-9-methoxy-2,4a,6a,9,12b,14a-hexamethyl-10,11-dioxo-1,2,3,4,4a,5,6,6a,9,10,11,12b,13,14,14a,14b-hexadecahydropicene-2-carboxamide]
- Kd (Nur77-LBD): 890 nM
- inhibition at 10 µM [1]: 30 to 50%
- inhibition at 10 µM (SW620 (colon cancer)): 50 to 80%
- inhibition at 10 µM (HepG2 (liver cancer)): 50 to 80%
- inhibition at 10 µM [2]: 50 to 80%
- inhibition at 10 µM (HeLa (ovarian cancer)): ≥ 80%
- inhibition at 10 µM [3]: 30 to 50%
- inhibition at 10 µM [4]: ≥ 80%

Structure (SMILES): CO[C@@]1(C)C2=CC=C3[C@@](C)(CC[C@@]4(C)[C@@H]5C[C@](C)(C(=O)NO)CC[C@]5(C)CC[C@]34C)C2=CC(=O)[C@@H]1O [Compound A57, (2R,4aS,6aS,9S,10R,12bR,14aS,14bR)—N,10-dihydroxy-9-methoxy-2,4a,6a,9,12b,14a-hexamethyl-11-oxo-1,2,3,4,4a,5,6,6a,9,10,11,12b,13,14,14a,14b-hexadecahydropicene-2-carboxamide]
- inhibition at 10 µM [1]: 30 to 50%
- inhibition at 10 µM (SW620 (colon cancer)): ≥ 80%
- inhibition at 10 µM (HepG2 (liver cancer)): ≥ 80%
- inhibition at 10 µM [2]: ≥ 80%
- inhibition at 10 µM (HeLa (ovarian cancer)): 50 to 80%
- inhibition at 10 µM [3]: ≥ 80%
- inhibition at 10 µM [4]: 50 to 80%

Structure (SMILES): CO[C@@]1(C)C2=CC=C3[C@@](C)(CC[C@@]4(C)[C@@H]5C[C@](C)(C(N)=O)CC[C@]5(C)CC[C@]34C)C2=CC(=O)/C1=C\C#N [Compound A59, (2R,4aS,6aS,9S,10Z,12bR,14aS,14bR)-10-(cyanomethylidene)-9-methoxy-2,4a,6a,9,12b,14a-hexamethyl-11-oxo-1,2,3,4,4a,5,6,6a,9,10,11,12b,13,14,14a,14b-hexadecahydropicene-2-carboxamide]
- inhibition at 10 µM [1]: ≥ 80%
- inhibition at 10 µM (SW620 (colon cancer)): ≥ 80%
- inhibition at 10 µM (HepG2 (liver cancer)): ≥ 80%
- inhibition at 10 µM [2]: ≥ 80%
- inhibition at 10 µM (HeLa (ovarian cancer)): ≥ 80%
- inhibition at 10 µM [3]: ≥ 80%
- inhibition at 10 µM [4]: ≥ 80%

Structure (SMILES): CO[C@@]1(C)C2=CC=C3[C@@](C)(CC[C@@]4(C)[C@@H]5C[C@](C)(C#N)CC[C@]5(C)CC[C@]34C)C2=CC(=O)[C@@H]1O [Compound A62, (2R,4aS,6aS,9S,10R,12bR,14aS,14bR)-10-hydroxy-9-methoxy-2,4a,6a,9,12b,14a-hexamethyl-11-oxo-1,2,3,4,4a,5,6,6a,9,10,11,12b,13,14,14a,14b-hexadecahydropicene-2-carbonitrile]
- inhibition at 10 µM [1]: 30 to 50%
- inhibition at 10 µM (SW620 (colon cancer)): ≥ 80%
- inhibition at 10 µM (HepG2 (liver cancer)): 30 to 50%
- inhibition at 10 µM [2]: ≥ 80%
- inhibition at 10 µM (HeLa (ovarian cancer)): < 30%
- inhibition at 10 µM [3]: 30 to 50%
- inhibition at 10 µM [4]: 30 to 50%

— patent publication US12570687B2, “Triterpenoid compounds, pharmaceutical compositions thereof, and their use for treating a nuclear receptor subfamily 4 group a member 1-mediated disease” (NUCMITO PHARMACEUTICALS COMPANY LIMITED, priority 2019, dated 2026)
